Results published in the NIST ThermoML archive (doi:10.1021/acs.jced.8b01135).
“And” between values parts separate entries of the source, which are not always exact repeats. Identical values can stand only once.

Assays:
[1] = xn = mol fraction of the nth substance listed; details: 102 kPa, Liquid, x2 = 0; for speed of sound: Frequency=3 MHz, Single path-length method; for mass density: Vibrating tube method; for viscosity: Concentric cylinders viscometry
[2] = 102 kPa, Liquid; for speed of sound: Frequency=3 MHz, Single path-length method; for mass density: Vibrating tube method; for viscosity: Concentric cylinders viscometry

CCCCCCCCCCCC [dodecane] + CCCCCCCCC1CCCCC1
[1]
Details	mass density [kg/m3]	speed of sound [m/s]	viscosity [mPa·s]
288.15 K	752.35	1317.2	–
293.15 K	748.72	1297.7	1.49
298.15 K	745.09	1278.2	–
303.15 K	741.46	1259	1.27
313.15 K	734.19	1221.1	1.08
323.15 K	726.88	1184	0.934
333.15 K	719.53	1147.8	0.813

CCCCCCCCCCCC [dodecane] + CCCCCCCCCCC1CCCCC1
[1]
Details	mass density [kg/m3]	speed of sound [m/s]	viscosity [mPa·s]
288.15 K	752.35	1317.2	–
293.15 K	748.72	1297.7	1.49
298.15 K	745.09	1278.2	–
303.15 K	741.46	1259	1.27
313.15 K	734.19	1221.1	1.08
323.15 K	726.88	1184	0.934
333.15 K	719.53	1147.8	0.813

CCCCCCCCCCCC [dodecane] + CCCCCCCCCCCCC1CCCCC1
[1]
Details	mass density [kg/m3]	speed of sound [m/s]	viscosity [mPa·s]
288.15 K	752.35	1317.2	–
293.15 K	748.72	1297.7	1.49
298.15 K	745.09	1278.2	–
303.15 K	741.46	1259	1.27
313.15 K	734.19	1221.1	1.08
323.15 K	726.88	1184	0.934
333.15 K	719.53	1147.8	0.813

CCCCCCCCCCCCC1CCCCC1 [dodecylcyclohexane]
[2]
Details	mass density [kg/m3]	speed of sound [m/s]	viscosity
288.15 K	825.71	1441.5	–
293.15 K	822.36	1422.9	7.77 mPa·s and 7.76 mPa·s
298.15 K	819.02	1404.8	–
303.15 K	815.68	1386.3	5.81 mPa·s
313.15 K	809.03	1350.5	4.48 mPa·s
323.15 K	802.38	1315.4	3.55 mPa·s
333.15 K	795.75	1281.4	2.87 mPa·s and 2.88 mPa·s
